Patent US6673931B2, “Naphthalenyl piperidines as renin inhibitors” (Hoffman-La Roche Inc., priority 1999, dated 2004)
Where a name gives a salt, the structure may show the parent alone.

biological target: T1, human renin (Homo sapiens, UniProt P00797); assay: In vitro test with pure human renin (angiotensin I production via RIA); assay type: biochemical; conditions: human tetradecapeptide renin substrate (hTD), pH 7.4, three hours at 37° C.
T1 sequence (P00797 67-406): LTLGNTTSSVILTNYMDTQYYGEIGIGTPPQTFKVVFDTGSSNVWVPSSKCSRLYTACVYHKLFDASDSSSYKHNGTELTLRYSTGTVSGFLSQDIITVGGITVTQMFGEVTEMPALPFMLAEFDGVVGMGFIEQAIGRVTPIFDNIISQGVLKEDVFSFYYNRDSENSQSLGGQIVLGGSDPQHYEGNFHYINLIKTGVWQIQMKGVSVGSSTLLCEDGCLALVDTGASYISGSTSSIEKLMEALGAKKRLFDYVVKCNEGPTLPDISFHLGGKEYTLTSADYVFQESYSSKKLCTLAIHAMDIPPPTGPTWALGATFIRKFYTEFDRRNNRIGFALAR
Experimental: The tests can be carried out in analogy to those described by D. T. Pals et al. in Hypertension Vol. 8, 1105-1112 (1986) or J. Boger et al. in J. Med. Chem. 28, 1779-1790 (1985) or J. F. Dellaria et al. in J. Med. Chem. 30,2137-2144 (1987) or T. Kokubu et al. in Biochem. Biophys. Res. Commun. 118, 929-933 (1984):
In vitro test with pure human renin:
The test is carried out in Eppendorf test tubes. The incubation mixture consists of (1) 100 μl of human renin in buffer A (0.1 M sodium phosphate solution, pH 7.4, containing 0.1% bovine serum albumin, 0.1% sodium azide and 1 mM ethylenediaminetetraacetic acid), sufficient for a renin activity of 2-3 ng of angiotensin I/ml/hr.; (2) 145 μl of buffer A: (3) 30 μl of 10 mM human tetradecapeptide renin substrate (hTD) in 10 mM hydrochloric acid: (4) 15 μl of dimethyl sulphoxide with or without inhibitor and (5) 10 μl of a 0.03 molar solution of hydroxyquinoline sulphate in water.
The samples are incubated for three hours at 37° C. and, respectively, 4° C. in triplicate. 2×100 μl samples per test tube are used in order to measure the production of angiotensin I via RIA (standard radioimmunoassay; clinical assay solid phase kit). Cross reactivities of the antibody used in the RIA are: angiotensin I 100%; angiotensin II 0.0013%; hTD (angiotensin I-Val-Ile-His-Ser-OH) 0.09%. The production of angiotensin I is determined by the difference between the test at 37° C. and that at 4° C.
The following controls are carried out:
(a) Incubation of hTD samples without renin and without inhibitor at 37° C. and 40° C. The difference between these two values gives the base value of the angiotensin I production.
(b) Incubation of hTD samples with renin, but without inhibitor at 37° C. and 4° C. The difference between these values gives the maximum value of the angiotensin I production.
In each sample the base value of the angiotensin I production is subtracted from the angiotensin I production which is determined. The difference between the maximum value and the base value gives the value of the maximum substrate hydrolysis (=100%) by renin.
The results are given as IC50 values which denote the concentration of the inhibitor at which the enzymatic activity is inhibited by 50%. The IC50 values are determined from a linear regression curve from a logit-log plot.

Row | SMILES | IC50
1 | COCCOC[C@@H](O)CO[C@@H]1CNC[C@H](OCc2cc(OC)c3ccccc3c2)[C@H]1c1ccc(OCCCOCc2ccccc2OC)cc1 [B, (R)-1-[(3S,4R,5R)-4-[4-[3-(2-methoxy-benzyloxy)-propoxy]-phenyl]-5-(4-methoxy-naphthalen-2-ylmethoxy)-piperidin-3-yloxy]-3-(2-methoxy-ethoxy)-propan-2-ol] | 0.03 nM
2 | COc1cc(CO[C@H]2CNC[C@@H](OC[C@H](O)CO)[C@@H]2c2ccc(OCCCOc3ccccc3[N+](=O)[O-])cc2)cc2ccccc12 [C, (R)-3-[(3S,4R,5R)-5-(4-methoxy-naphthalen-2-ylmethoxy)-4-[4-[3-(2-nitro-phenoxy)-propoxy]-phenyl]-piperidin-3-yloxy]-propane-1,2-diol] | 0.08 nM
3 | COc1ccccc1COCCCOc1ccc([C@H]2[C@H](Cn3ccnc3)CNC[C@@H]2OCc2cc(OC)c3ccccc3c2)cc1 [E, (3S,4R,5R)-3-imidazol-1-ylmethyl-4-[4-[3-(2-methoxy-benzyloxy)-propoxy]-phenyl]-5-(4-methoxy-naphthalen-2-ylmethoxy)-piperidine dihydrochloride] | 0.07 nM
4 | COc1ccccc1COCCCOc1ccc([C@H]2[C@H](CO)CNC[C@@H]2OCc2cc(OC)c3ccccc3c2)cc1 [D, (3S,4R,5R)-[4-[4-[3-(2-methoxy-benzyloxy)-propoxy]-phenyl]-5-(4-methoxy-naphthalen-2-ylmethoxy)-piperidin-3-yl]-methanol] | 0.02 nM
5 | COC[C@@H](O)CO[C@@H]1CNC[C@H](OCc2cc(OC)c3ccccc3c2)[C@H]1c1ccc(OCCCOCc2ccccc2OC)cc1 [A, (R)-1-methoxy-3-[(3S,4R,5R)-4-[4-[3-(2-methoxy-benzyloxy)-propoxy]-phenyl]-5-(4-methoxy-naphthalen-2-ylmethoxy)-piperidin-3-yloxy]-propan-2-ol] | 0.06 nM
